Assay results reported in ChEMBL document CHEMBL4699600, “Design, Synthesis, and Biological Evaluation of Covalent Inhibitors of Focal Adhesion Kinase (FAK) against Human Malignant Glioblastoma” (J Med Chem, 2020).
Activity calls are given as the source filed them. No cut-off for these calls is given here.

Assays:
[1] = target: Mast/stem cell growth factor receptor Kit (Homo sapiens) (UniProt P10721); assay: Inhibition of human recombinant c-kit at 100 nM in presence of [gamma33P]ATP by radiometric assay relative to control
Homo sapiens = organism: Homo sapiens; assay: Inhibition of human recombinant Erk at 100 nM measured in presence of [33P]-ATP by radiometric analysis relative to control
[2] = target: Epidermal growth factor receptor (Homo sapiens) (UniProt P00533); assay: Inhibition of human recombinant EGFR at 100 nM in presence of [gamma33P]ATP by radiometric assay relative to control
[3] = target: Insulin receptor (Homo sapiens) (UniProt P06213); assay: Inhibition of human recombinant IR at 100 nM by [gamma-33ATP] radiometric analysis relative to control
Focal adhesion kinase 1 [4] = target: T1, Focal adhesion kinase 1 (Homo sapiens, UniProt Q05397); assay: Inhibition of human recombinant FAK at 100 nM by [gamma32P]-ATP radiometric analysis relative to control
Focal adhesion kinase 1 [5] = target: T1, Focal adhesion kinase 1; assay: Inhibition of recombinant human N-terminal His-tagged FAK (393 to 698 residues) expressed in baculovirus infected Sf9 insect cells using Poly (4:1 Glu, Tyr) as substrate measured after 1 hr by ADP-glo luminescence assay
Target sequence in this assay (Q05397 whole entry, the tested form may be a part): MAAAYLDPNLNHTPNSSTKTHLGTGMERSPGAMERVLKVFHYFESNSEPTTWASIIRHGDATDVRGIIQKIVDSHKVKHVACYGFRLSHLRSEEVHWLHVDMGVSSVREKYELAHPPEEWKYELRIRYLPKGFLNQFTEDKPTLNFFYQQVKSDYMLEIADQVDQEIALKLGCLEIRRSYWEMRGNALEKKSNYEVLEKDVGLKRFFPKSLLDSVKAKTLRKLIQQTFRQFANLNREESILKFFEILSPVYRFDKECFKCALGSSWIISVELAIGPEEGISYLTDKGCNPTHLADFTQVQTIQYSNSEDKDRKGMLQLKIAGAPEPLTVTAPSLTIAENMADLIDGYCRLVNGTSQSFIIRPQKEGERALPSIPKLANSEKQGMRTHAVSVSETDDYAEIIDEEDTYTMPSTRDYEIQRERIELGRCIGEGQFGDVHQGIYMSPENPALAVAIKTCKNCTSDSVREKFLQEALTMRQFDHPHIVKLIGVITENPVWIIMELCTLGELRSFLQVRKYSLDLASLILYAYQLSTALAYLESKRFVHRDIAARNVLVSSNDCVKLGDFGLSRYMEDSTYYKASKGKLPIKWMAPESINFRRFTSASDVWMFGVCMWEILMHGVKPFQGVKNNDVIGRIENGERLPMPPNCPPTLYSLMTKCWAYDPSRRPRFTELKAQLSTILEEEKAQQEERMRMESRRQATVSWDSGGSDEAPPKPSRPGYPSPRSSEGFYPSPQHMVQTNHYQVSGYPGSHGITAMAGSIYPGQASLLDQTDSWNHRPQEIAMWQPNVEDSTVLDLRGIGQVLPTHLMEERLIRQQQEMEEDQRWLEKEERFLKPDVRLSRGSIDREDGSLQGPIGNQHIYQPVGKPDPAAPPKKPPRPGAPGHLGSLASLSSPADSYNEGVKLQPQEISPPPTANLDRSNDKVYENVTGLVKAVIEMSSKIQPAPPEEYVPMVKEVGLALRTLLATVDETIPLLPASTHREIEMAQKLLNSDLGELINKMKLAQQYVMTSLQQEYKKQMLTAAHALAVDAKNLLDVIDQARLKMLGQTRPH

[6] = target: Proto-oncogene tyrosine-protein kinase Src (Homo sapiens) (UniProt P12931); assay: Inhibition of human recombinant Src at 100 nM in presence of [gamma33P]ATP by radiometric assay relative to control
[7] = target: Platelet-derived growth factor receptor alpha (Homo sapiens) (UniProt P16234); assay: Inhibition of human recombinant PDGFRA at 100 nM by [gamma-33ATP] radiometric assay relative to control
[8] = target: Protein-tyrosine kinase 2-beta (Homo sapiens) (UniProt Q14289); assay: Inhibition of recombinant human full length PYK2 at 100 nM in presence of [gamma32P]-ATP by radiometric analysis relative to control
[9] = target: Insulin-like growth factor 1 receptor (Homo sapiens) (UniProt P08069); assay: Inhibition of human recombinant IGF1R at 100 nM by [gamma-33ATP] radiometric assay relative to control
[10] = target: Fibroblast growth factor receptor 1 (Homo sapiens) (UniProt P11362); assay: Inhibition of human recombinant FGFR1 (456 to 765 residues) at 100 nM in presence of [gamma33P]ATP by radiometric assay relative to control
[11] = target: T2, Serine/threonine-protein kinase AKT (Homo sapiens) (UniProt P31751+Q9Y243+P31749); assay: Inhibition of human Akt at 100 nM in presence of [33P]-ATP by radiometric analysis relative to control; format: protein assay
U-87 MG [12] = assay: Induction of cell cycle arrest in human U87MG cells assessed as accumulation in G2/M phase at 1 uM incubated for 48 hrs by propidium iodide staining based flow cytometry analysis (reference value: 28.9 +/- 2.1 %); format: functional, U-87MG ATCC; settings: dose microM 1-10
U-87 MG [13] = assay: Induction of cell cycle arrest in human U87MG cells assessed as increase in accumulation at G2 phase at 1 uM incubated for 48 hrs by propidium iodide staining based flow cytometry analysis; format: functional; settings: U-87MG ATCC
A 172 = assay: Cytotoxicity against human A172 cells assessed as reduction in cell viability incubated for 48 hrs by MTT assay; settings: A 172, 48 h
U-87 MG [14] = assay: Induction of cell cycle arrest in human U87MG cells assessed as multi-nucleated giant cells at 1 uM incubated for 48 hrs by TO-PRO-3 dye based immunocytochemistry analysis; format: functional; settings: U-87MG ATCC
U-87 MG [15] = assay: Induction of cellular senescence in human U87MG cells assessed as flat and enlarged cells at 1 uM incubated for 48 hrs by TO-PRO-3 dye based immunocytochemistry analysis; format: functional, cell-based; settings: U-87MG ATCC
U-87 MG [16] = assay: Induction of apoptosis in human U87MG cells assessed as early apoptotic cells at 10 uM incubated for 48 hrs by Annexin-V/propidium iodide staining based flow cytometric method (reference value: 4.55 %); format: functional, U-87MG ATCC
U-251 = assay: Cytotoxicity against human U251 cells assessed as reduction in cell viability incubated for 48 hrs by MTT assay; settings: U-251, 48 h
Focal adhesion kinase 1 [17] = target: T1, Focal adhesion kinase 1; assay: Covalent inhibition of recombinant human N-terminal His-tagged FAK (393 to 698 residues) expressed in baculovirus infected Sf9 insect cells using Poly (4:1 Glu, Tyr) as substrate preincubated for 2 to 60 mins followed by substrate addition and measured after 1 hr by ADP-glo luminescence assay
Target sequence in this assay (Q05397 whole entry, the tested form may be a part): as above

U-87 MG [18] = assay: Induction of cell cycle arrest in human U87MG cells assessed as accumulation at S phase at 1 uM incubated for 48 hrs by propidium iodide staining based flow cytometry analysis (reference value: 19.5 %); format: functional, U-87MG ATCC
U-87 MG [19] = assay: Induction of cell cycle arrest in human U87MG cells assessed as accumulation at G0/G1 phase at 1 uM incubated for 48 hrs by propidium iodide staining based flow cytometry analysis (reference value: 51.6 +/- […]); format: functional, U-87MG ATCC
U-87 MG [20] = assay: Induction of apoptosis in human U87MG cells assessed as late apoptotic cells at 10 uM incubated for 48 hrs by Annexin-V/propidium iodide staining based flow cytometric method (reference value: […]); format: functional, U-87MG ATCC
U-87 MG [21] = assay: Cytotoxicity against human U-87 MG cells assessed as reduction in cell viability incubated for 48 hrs by MTT assay
U-87 MG [22] = assay: Induction of apoptosis in human U87MG cells assessed as necrotic cells at 10 uM incubated for 48 hrs by Annexin-V/propidium iodide staining based flow cytometric method (reference value: […]); format: functional, U-87MG ATCC
U-87 MG [23] = assay: Inhibition of cell adhesion in human U87MG cells assessed as increase in appearance of stress fiber at 1 uM incubated for 48 hrs by FITC-conjugated phalloidin and TO-PRO3 staining based microscopic analysis; format: functional; settings: U-87MG ATCC
Focal adhesion kinase 1 [24] = target: T1, Focal adhesion kinase 1; settings: U-87 MG, dose microM 0.6-3, time 48.0 hrs
U-87 MG [25] = assay: Inhibition of cell migration in human U87MG cells assessed as reduction of cell mobility at 0.2 to 1 uM measured at 24 to 48 hrs by scratch wound assay; format: functional, cell-based; settings: U-87MG ATCC, dose microM 0.2-1, time hrs 24-48
Focal adhesion kinase 1 [26] = target: T1, Focal adhesion kinase 1; settings: U-87 MG, dose microM 0.1-10, time 48.0 hrs
Focal adhesion kinase 1 [27] = target: T1, Focal adhesion kinase 1; settings: U-87 MG, dose microM 0.1-5, time 48.0 hrs
Focal adhesion kinase 1 [28] = target: T1, Focal adhesion kinase 1; settings: U-87 MG, dose microM 0.1-10, time 48.0 hrs; remark: listed apart in the source
U-87 MG [29] = assay: Induction of apoptosis in human U87MG cells assessed as live cells at 10 uM incubated for 48 hrs by Annexin-V/propidium iodide staining based flow cytometric method (reference value: 94.2%); format: functional, U-87MG ATCC
U-87 MG [30] = assay: Activation of ERK in human U87MG cells at 0.1 to 10 uM incubated for 48 hrs by Western blot analysis; format: cell-based; settings: dose microM 0.1-10, time 48.0 hrs
Focal adhesion kinase 1 [31] = target: T1, Focal adhesion kinase 1; settings: U-87 MG, dose microM 0.1-10, time 48.0 hrs; remark: listed apart in the source
Focal adhesion kinase 1 [32] = target: T1, Focal adhesion kinase 1; settings: U-87 MG, dose microM 0.1-5, time 48.0 hrs; remark: listed apart in the source
[33] = target: T2, Serine/threonine-protein kinase AKT (Homo sapiens); assay: Activation of AKT in human U87MG cells at 0.1 to 10 uM incubated for 48 hrs by Western blot analysis; format: cell-based; settings: U-87 MG, dose microM 0.1-10, time 48.0 hrs

T2 sequence (P31749 whole entry, looked up): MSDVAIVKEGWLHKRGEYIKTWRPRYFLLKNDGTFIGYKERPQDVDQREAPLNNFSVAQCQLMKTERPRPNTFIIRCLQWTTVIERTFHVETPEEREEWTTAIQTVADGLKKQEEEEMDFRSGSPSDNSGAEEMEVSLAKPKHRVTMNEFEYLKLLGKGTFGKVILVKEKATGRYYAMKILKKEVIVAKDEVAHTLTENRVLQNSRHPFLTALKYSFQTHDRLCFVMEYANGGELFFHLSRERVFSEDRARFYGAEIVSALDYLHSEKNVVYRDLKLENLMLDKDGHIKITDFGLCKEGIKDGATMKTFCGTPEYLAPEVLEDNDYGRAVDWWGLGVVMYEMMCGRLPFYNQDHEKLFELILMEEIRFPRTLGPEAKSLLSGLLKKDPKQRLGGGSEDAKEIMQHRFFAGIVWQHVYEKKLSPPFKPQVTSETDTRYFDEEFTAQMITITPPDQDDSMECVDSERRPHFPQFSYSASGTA
T2 sequence (P31751 whole entry, looked up): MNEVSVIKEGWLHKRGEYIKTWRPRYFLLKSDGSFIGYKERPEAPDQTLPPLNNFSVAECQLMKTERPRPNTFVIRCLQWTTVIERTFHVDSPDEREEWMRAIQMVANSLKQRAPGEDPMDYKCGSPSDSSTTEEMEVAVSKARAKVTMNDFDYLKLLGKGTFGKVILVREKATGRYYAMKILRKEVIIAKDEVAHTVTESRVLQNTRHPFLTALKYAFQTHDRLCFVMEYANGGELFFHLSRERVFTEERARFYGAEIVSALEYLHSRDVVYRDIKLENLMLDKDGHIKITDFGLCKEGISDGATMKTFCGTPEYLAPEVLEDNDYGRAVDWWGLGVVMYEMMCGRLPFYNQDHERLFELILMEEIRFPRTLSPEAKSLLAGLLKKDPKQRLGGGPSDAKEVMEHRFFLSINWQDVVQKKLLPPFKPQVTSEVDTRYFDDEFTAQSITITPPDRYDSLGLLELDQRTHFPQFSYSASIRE
T2 sequence (Q9Y243 whole entry, looked up): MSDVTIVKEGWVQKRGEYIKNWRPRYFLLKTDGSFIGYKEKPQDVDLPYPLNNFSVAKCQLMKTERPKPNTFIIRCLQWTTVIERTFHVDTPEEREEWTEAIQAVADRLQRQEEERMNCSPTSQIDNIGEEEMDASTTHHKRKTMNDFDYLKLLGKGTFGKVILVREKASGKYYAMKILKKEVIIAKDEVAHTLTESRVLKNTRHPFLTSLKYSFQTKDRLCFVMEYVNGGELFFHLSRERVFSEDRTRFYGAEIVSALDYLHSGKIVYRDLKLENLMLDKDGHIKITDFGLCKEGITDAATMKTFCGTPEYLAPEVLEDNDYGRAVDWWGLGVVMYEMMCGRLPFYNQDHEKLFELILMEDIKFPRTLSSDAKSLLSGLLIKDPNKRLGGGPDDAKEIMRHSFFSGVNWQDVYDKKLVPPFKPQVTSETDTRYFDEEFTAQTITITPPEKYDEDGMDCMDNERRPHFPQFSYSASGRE
Platelet-derived growth factor receptor alpha (Homo sapiens), sequence (P16234 whole entry): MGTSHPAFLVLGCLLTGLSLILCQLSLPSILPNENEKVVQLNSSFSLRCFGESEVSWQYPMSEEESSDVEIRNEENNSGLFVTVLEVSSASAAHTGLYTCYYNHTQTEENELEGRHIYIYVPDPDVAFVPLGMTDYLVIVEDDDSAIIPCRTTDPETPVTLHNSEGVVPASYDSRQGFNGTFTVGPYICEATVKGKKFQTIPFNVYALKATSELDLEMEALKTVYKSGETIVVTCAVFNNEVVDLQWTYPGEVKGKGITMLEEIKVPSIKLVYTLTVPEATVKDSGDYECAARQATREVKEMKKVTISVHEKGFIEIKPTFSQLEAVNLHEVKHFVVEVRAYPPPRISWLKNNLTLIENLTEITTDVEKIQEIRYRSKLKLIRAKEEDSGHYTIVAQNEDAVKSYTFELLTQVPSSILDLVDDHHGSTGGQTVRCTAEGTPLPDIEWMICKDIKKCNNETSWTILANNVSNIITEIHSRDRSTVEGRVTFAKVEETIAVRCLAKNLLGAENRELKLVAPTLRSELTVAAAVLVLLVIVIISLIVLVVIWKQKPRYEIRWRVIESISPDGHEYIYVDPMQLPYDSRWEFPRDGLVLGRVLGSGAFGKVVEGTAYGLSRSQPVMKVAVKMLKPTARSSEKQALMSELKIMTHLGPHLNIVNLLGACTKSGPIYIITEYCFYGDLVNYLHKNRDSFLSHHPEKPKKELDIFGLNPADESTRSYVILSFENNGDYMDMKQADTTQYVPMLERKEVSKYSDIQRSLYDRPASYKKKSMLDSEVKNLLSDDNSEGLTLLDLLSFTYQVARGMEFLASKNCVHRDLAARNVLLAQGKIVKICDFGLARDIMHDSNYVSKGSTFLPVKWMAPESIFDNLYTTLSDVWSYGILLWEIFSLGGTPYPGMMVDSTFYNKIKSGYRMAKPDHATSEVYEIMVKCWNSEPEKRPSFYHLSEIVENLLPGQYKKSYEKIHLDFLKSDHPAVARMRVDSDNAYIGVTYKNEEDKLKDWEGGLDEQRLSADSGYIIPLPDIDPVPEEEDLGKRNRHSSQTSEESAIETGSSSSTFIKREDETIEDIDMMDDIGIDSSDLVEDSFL
Proto-oncogene tyrosine-protein kinase Src (Homo sapiens), sequence (P12931 2-536 limits assumed): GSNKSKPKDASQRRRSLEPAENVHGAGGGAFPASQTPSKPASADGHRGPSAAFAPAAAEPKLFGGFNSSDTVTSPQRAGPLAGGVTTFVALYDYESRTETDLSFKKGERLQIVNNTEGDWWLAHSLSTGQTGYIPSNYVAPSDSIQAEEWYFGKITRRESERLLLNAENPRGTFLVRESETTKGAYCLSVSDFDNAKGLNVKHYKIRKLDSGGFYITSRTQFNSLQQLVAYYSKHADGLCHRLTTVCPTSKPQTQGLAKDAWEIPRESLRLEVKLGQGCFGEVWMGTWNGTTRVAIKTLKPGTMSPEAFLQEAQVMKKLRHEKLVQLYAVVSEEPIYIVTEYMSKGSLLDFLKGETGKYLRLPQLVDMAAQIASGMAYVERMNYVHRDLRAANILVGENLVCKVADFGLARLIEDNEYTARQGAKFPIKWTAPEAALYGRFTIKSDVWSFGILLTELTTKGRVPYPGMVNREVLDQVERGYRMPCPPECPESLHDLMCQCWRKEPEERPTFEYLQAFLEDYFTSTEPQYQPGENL
Fibroblast growth factor receptor 1 (Homo sapiens), sequence (P11362 22-822 limits assumed): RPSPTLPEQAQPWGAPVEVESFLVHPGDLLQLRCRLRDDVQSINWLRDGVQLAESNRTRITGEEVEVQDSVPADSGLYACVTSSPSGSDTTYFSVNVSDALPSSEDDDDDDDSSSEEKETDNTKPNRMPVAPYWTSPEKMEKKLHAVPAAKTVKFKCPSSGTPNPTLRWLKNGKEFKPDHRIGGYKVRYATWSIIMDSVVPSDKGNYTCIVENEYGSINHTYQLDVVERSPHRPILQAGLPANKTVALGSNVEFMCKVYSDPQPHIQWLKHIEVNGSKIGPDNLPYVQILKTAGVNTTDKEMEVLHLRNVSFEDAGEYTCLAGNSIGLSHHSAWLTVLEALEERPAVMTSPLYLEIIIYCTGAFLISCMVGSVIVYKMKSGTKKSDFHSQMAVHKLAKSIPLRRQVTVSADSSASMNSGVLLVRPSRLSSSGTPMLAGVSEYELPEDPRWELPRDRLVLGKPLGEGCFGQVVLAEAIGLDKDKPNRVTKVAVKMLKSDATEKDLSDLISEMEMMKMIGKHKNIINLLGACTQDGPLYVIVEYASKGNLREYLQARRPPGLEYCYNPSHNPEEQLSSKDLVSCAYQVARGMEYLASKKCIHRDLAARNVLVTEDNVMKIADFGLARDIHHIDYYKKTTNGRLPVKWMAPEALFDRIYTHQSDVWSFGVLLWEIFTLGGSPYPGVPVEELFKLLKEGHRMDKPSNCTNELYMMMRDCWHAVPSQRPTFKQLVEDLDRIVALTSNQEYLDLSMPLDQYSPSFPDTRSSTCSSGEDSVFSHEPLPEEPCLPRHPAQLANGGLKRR

Structure (SMILES)	inhibition [1]	inhibition (Homo sapiens)	inhibition [2]	inhibition [3]	inhibition (Focal adhesion kinase 1 [4])	IC50 (Focal adhesion kinase 1 [5])	Activity (U-87 MG [12])	Activity (U-87 MG [13])	IC50 (A 172)	Activity (U-87 MG [14])	Activity (U-87 MG [15])	Activity (U-87 MG [16])	IC50 (U-251)	Activity (U-87 MG [18])	Activity (U-87 MG [19])	Activity (U-87 MG [20])	IC50 (U-87 MG [21])	Activity (U-87 MG [22])	inhibition (U-87 MG [23])	inhibition (U-87 MG [25])	other results
C=CC(=O)NCCNc1c(NCc2ccc(Nc3ncc(Cl)c(NCc4cccnc4N(C)S(C)(=O)=O)n3)cc2)c(=O)c1=O	0%	4.1%	1.2%	15.1%	92.2%	5.5 nM	–	–	–	–	–	–	–	–	–	–	–	–	–	–	inhibition [6]: 17.9%; inhibition [7]: 12.5%; inhibition [8]: 68.3%; inhibition [9]: 28.1%; inhibition [10]: 32.5%; inhibition [11]: 2.5%
C=CC(=O)NCCNc1c(NCc2ccc(Nc3ncc(C(F)(F)F)c(Nc4ccccc4C(=O)NC)n3)cc2)c(=O)c1=O	0.1%	21.8%	29%	82.5%	98.6%	6.8 nM	75.1%	Active	130 nM	Active	Active	5.6%	150 nM	11.2%	13.7%	3.85%	3300 nM	1.1%	Active	Active	inhibition [6]: 55.6%; Ki (Focal adhesion kinase 1 [17]): 2.64 nM; inhibition [7]: 78.4%; inhibition (Focal adhesion kinase 1 [24]): Dose-dependent effect; inhibition [8]: 99.8%; inhibition [9]: 94.4%; inhibition [10]: 88.3%; inhibition [11]: 25.1%
CNC(=O)c1ccccc1Nc1nc(Nc2ccc(CNc3c(NCCNC(=O)/C(C#N)=C/C(C)C)c(=O)c3=O)cc2)ncc1Cl	0%	4.3%	25.1%	32.4%	94.1%	1.2 nM	79.1%	Active	1300 nM	Active	Active	0%	9800 nM	8.2%	12.7%	0.21%	7100 nM	3.37%	Active	Active	inhibition (Focal adhesion kinase 1 [26]): Dose-dependent effect; inhibition (Focal adhesion kinase 1 [27]): Dose-dependent effect; inhibition (Focal adhesion kinase 1 [28]): Dose-dependent effect; Activity (U-87 MG [29]): 96.4%; inhibition [6]: 31.1%; Ki (Focal adhesion kinase 1 [17]): 0.47 nM; Activity (U-87 MG [30]): inactive; inhibition [7]: 67.5%; inhibition (Focal adhesion kinase 1 [24]): Dose-dependent effect; inhibition [8]: 97.5%; inhibition [9]: 71.9%; inhibition [10]: 83.5%; inhibition (Focal adhesion kinase 1 [31]): Dose-dependent effect; inhibition (Focal adhesion kinase 1 [32]): inactive; inhibition [11]: 19.9%; Activity [33]: inactive
CNC(=O)c1ccccc1Nc1nc(Nc2ccc(N3CCOCC3)cc2OC)ncc1Cl	–	–	–	–	–	–	66.1%	Active	8300 nM	Active	Active	7.24%	6300 nM	19.5%	16.2%	2.45%	2900 nM	2.2%	Active	Active	inhibition (Focal adhesion kinase 1 [26]): Dose-dependent effect; inhibition (Focal adhesion kinase 1 [28]): Dose-dependent effect; Activity (U-87 MG [29]): 88.1%; inhibition (Focal adhesion kinase 1 [24]): Dose-dependent effect; inhibition (Focal adhesion kinase 1 [31]): Dose-dependent effect; inhibition (Focal adhesion kinase 1 [32]): Active
CNC(=O)c1ccccc1Nc1nc(Nc2ccc(CNc3c(NCCNC(=O)/C(C#N)=C/C4CC4)c(=O)c3=O)cc2)ncc1Cl	–	–	–	–	–	–	83.1%	Active	890 nM	Active	Active	7.3%	1200 nM	8.8%	8.1%	4.06%	7200 nM	1.39%	Active	Active	Activity (U-87 MG [29]): 87.3%
C=CC(=O)NCCNc1c(NCc2ccc(Nc3ncc(Cl)c(Nc4ccccc4C(=O)NC)n3)cc2)c(=O)c1=O	0.2%	14.2%	47.2%	57.6%	98.1%	0.6 nM	80.8%	Active	650 nM	Active	Active	6.05%	220 nM	10%	9.2%	2.45%	2200 nM	0.67%	Active	Active	inhibition (Focal adhesion kinase 1 [26]): Dose-dependent effect; inhibition (Focal adhesion kinase 1 [27]): Dose-dependent effect; inhibition (Focal adhesion kinase 1 [28]): Dose-dependent effect; Activity (U-87 MG [29]): 90.8%; inhibition [6]: 52.1%; Ki (Focal adhesion kinase 1 [17]): 0.23 nM; Activity (U-87 MG [30]): inactive; inhibition [7]: 91%; inhibition (Focal adhesion kinase 1 [24]): Dose-dependent effect; inhibition [8]: 97.6%; inhibition [9]: 91.5%; inhibition [10]: 87.1%; inhibition (Focal adhesion kinase 1 [31]): Dose-dependent effect; inhibition (Focal adhesion kinase 1 [32]): inactive; inhibition [11]: 3.7%; Activity [33]: inactive
